Where two headings read alike, the source gives them in different places. Values belong to the compound of their own block, whether it stands above or below them.
How the values were obtained:
Mcl-1 protein = Mcl-1 protein (UniProtKB primary accession number: Q07820) (Homo sapiens, UniProt Q07820); experiment: Inhibition of Mcl-1 by fluorescence polarisation, Method 1; assay type: binding; details: for IC50: read-out: IC50 (M) Mcl-1 FP; for percentage fluorescence polarisation inhibition (Mcl-1 FP), partial inhibitors: test compound at 10 uM
Mcl-1 protein, sequence (Q07820 whole entry): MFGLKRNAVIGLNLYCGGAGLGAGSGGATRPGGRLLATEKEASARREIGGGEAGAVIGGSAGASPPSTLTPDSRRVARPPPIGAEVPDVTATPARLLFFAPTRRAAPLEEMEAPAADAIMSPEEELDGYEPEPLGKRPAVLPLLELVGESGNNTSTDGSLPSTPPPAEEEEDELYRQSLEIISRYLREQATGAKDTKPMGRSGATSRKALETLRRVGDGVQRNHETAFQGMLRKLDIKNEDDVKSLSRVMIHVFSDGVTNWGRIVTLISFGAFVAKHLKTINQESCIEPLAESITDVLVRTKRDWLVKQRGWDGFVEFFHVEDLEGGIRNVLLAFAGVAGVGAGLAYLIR
How it was run: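 Compounds were tested as 11-point serial dilutions at 5% final DMSO against 5 nM Mcl-1 with 1 nM fluorescein-labelled ligand in 10 mM HEPES, 150 mM NaCl, 0.05% Tween 20, pH 7.4. Relative binding potency was read by fluorescence polarisation.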

[1] = test system: H929 multiple myeloma tumour line; experiment: In vitro cytotoxicity, Microculture Tetrazolium Assay; assay type: cell-based; details: read-out: IC50 (μM) MTT H929
Description: The cytotoxicity studies were carried out on the H929 multiple myeloma tumour line.
The cells are distributed onto microplates and exposed to the test compounds for 48 hours.

[2] = fluorescence polarisation test, Method 2 values are underlined in the patent (underlining not visible here)
[3] = Homo sapiens, NCI-H929, 48 h, H929 cells, 48 hours exposure, MTT
[4] = H929 cells, 48 hours exposure, MTT
[5] = Method 1, or Method 2 where the value is underlined (underlining not visible)
[6] = fluorescence polarisation test, Method 1, or Method 2 where the value is underlined (underlining not visible)

Compound: CCCCCn1nccc1C(C)Oc1ccccc1CC(Oc1ncnc2sc(-c3ccc(F)cc3)c(-c3ccc(OCCN4CCN(C)CC4)c(Cl)c3C)c12)C(=O)O (single isomer, unassigned) [Example 6, (2R)-2-{[(5Sa)-5-{3-chloro-2-methyl-4-[2-(4-methylpiperazin-1-yl)ethoxy]phenyl}-6-(4-fluorophenyl)thieno[2,3-d]pyrimidin-4-yl]oxy}-3-{2-[(1S or R)-1-(1-pentyl-1H-pyrazol-5-yl)ethoxy]phenyl}propanoic acid]
IC50 (Mcl-1 protein; [2]): 4.9e-09 M
IC50 [1, 4]: 0.332 µM

Compound: Cc1c(-c2c(-c3ccc(F)cc3)sc3ncnc(OC(Cc4ccccc4OCc4cnccn4)C(=O)O)c23)ccc(OC2CCCN(C)C2)c1Cl (single isomer, unassigned) [Example 141, (2R)-2-{[(5Sa)-5-{3-chloro-2-methyl-4-[((3S or R)-1-methylpiperidin-3-yl)oxy]phenyl}-6-(4-fluorophenyl)thieno[2,3-d]pyrimidin-4-yl]oxy}-3-[2-(pyrazin-2-ylmethoxy)phenyl]propanoic acid]
IC50 (Mcl-1 protein; [2]): 3.1e-08 M
IC50 [1, 4]: 0.27 µM

Compound: COc1ccccc1CC(Oc1ncnc2sc(-c3ccco3)c(-c3ccc(OC4CCCN(C)C4)c(Cl)c3C)c12)C(=O)O (single isomer, unassigned) [Example 301, (2R)-2-{[(5Sa)-5-{3-chloro-2-methyl-4-[((3R or S)-1-methylpiperidin-3-yl)oxy]phenyl}-6-(furan-2-yl)thieno[2,3-d]pyrimidin-4-yl]oxy}-3-(2-methoxyphenyl)propanoic acid]
IC50 (Mcl-1 protein; [2]): 1.2e-08 M
IC50 [1, 4]: 0.108 µM

Compound: Cc1c(-c2c(-c3ccc(F)o3)sc3ncnc(OC(Cc4ccccc4OCc4ccnn4CC(F)(F)F)C(=O)O)c23)ccc(OCCN2CCN(C)CC2)c1Cl [Example 185, (2R)-2-{[(5Sa)-5-{3-chloro-2-methyl-4-[2-(4-methylpiperazin-1-yl)ethoxy]phenyl}-6-(5-fluorofuran-2-yl)thieno[2,3-d]pyrimidin-4-yl]oxy}-3-(2-{[1-(2,2,2-trifluoroethyl)-1H-pyrazol-5-yl]methoxy}phenyl)propanoic acid]
IC50 ([1]; Homo sapiens, NCI-H929, 48 h): 0.012 µM

Compound: Cc1c(-c2c(-c3ccco3)sc3ncnc(OC(Cc4ccccc4OCc4ccnn4CC(F)(F)F)C(=O)O)c23)ccc(OCCN2CCN(C)CC2)c1Cl [Example 265, (2R)-2-{[(5Sa)-5-{3-chloro-2-methyl-4-[2-(4-methylpiperazin-1-yl)ethoxy]phenyl}-6-(furan-2-yl)thieno[2,3-d]pyrimidin-4-yl]oxy}-3-(2-{[1-(2,2,2-trifluoroethyl)-1H-pyrazol-5-yl]methoxy}phenyl)propanoic acid]
IC50 [1, 3]: 0.016 µM

Compound: CCCCCCCCOC(=O)[C@@H](Cc1ccccc1OC)Oc1ncnc2sc(-c3ccc(F)cc3)c(-c3ccc(OCCN4CCN(C)CC4)c(Cl)c3C)c12 [Example 850, octyl (2R)-2-{[(5Sa)-5-{3-chloro-2-methyl-4-[2-(4-methylpiperazin-1-yl)ethoxy]phenyl}-6-(4-fluorophenyl)thieno[2,3-d]pyrimidin-4-yl]oxy}-3-(2-methoxyphenyl)propanoate]
percentage fluorescence polarisation inhibition (Mcl-1 FP), partial inhibitors (Mcl-1 protein; [5]): 29.4% @ 10 uM

Compound: CCCCCCCCOC(=O)[C@@H](Cc1ccccc1OC)Oc1ncnc2sc(-c3ccc(F)cc3)c(-c3ccc(OC)c(Cl)c3C)c12 [Example 851, octyl (2R)-2-{[(5Sa)-5-(3-chloro-4-methoxy-2-methylphenyl)-6-(4-fluorophenyl)thieno[2,3-d]pyrimidin-4-yl]oxy}-3-(2-methoxyphenyl)propanoate]
percentage fluorescence polarisation inhibition (Mcl-1 FP), partial inhibitors (Mcl-1 protein; [5]): 7.85% @ 10 uM

Compound: Cc1c(-c2c(-c3ccc(F)cc3)sc3ncnc(OC(Cc4ccccc4OCc4ccnc(-c5ccccc5F)n4)C(=O)OCOC(=O)C(C)(C)C)c23)ccc(OCCN2CCN(C)CC2)c1Cl [Example 854, {[(2R)-2-{[(5Sa)-5-{3-chloro-2-methyl-4-[2-(4-methylpiperazin-1-yl)ethoxy]phenyl}-6-(4-fluorophenyl)thieno[2,3-d]pyrimidin-4-yl]oxy}-3-(2-{[2-(2-fluorophenyl)pyrimidin-4-yl]methoxy}phenyl)propanoyl]oxy}methyl 2,2-dimethylpropanoate]
IC50 (Mcl-1 protein; [6]): 1.72e-07 M

Compound: COc1ccccc1-c1nccc(COc2ccccc2CC(Oc2ncnc3sc(-c4ccc(F)cc4)c(-c4ccc(OCCN5CCN(C)CC5)c(Cl)c4C)c23)C(=O)OC(C)OC(C)=O)n1 [Example 858, 1-(acetyloxy)ethyl (2R)-2-{[(5Sa)-5-{3-chloro-2-methyl-4-[2-(4-methylpiperazin-1-yl)ethoxy]phenyl}-6-(4-fluorophenyl)thieno[2,3-d]pyrimidin-4-yl]oxy}-3-(2-{[2-(2-methoxyphenyl)pyrimidin-4-yl]methoxy}phenyl)propanoate]
IC50 (Mcl-1 protein; [6]): 2.11e-07 M

Compound: CCC(=O)OC(C)OC(=O)C(Cc1ccccc1OCc1ccnc(-c2ccccc2OC)n1)Oc1ncnc2sc(-c3ccc(F)cc3)c(-c3ccc(OCCN4CCN(C)CC4)c(Cl)c3C)c12 [Example 860, 1-(propanoyloxy)ethyl (2R)-2-{[(5Sa)-5-{3-chloro-2-methyl-4-[2-(4-methylpiperazin-1-yl)ethoxy]phenyl}-6-(4-fluorophenyl)thieno[2,3-d]pyrimidin-4-yl]oxy}-3-(2-{[2-(2-methoxyphenyl)pyrimidin-4-yl]methoxy}phenyl)propanoate]
IC50 (Mcl-1 protein; [6]): 2.04e-07 M

Compound: COCC(=O)OC(C)OC(=O)[C@@H](Cc1ccccc1OCc1ccnc(-c2ccccc2OC)n1)Oc1ncnc2sc(-c3ccc(F)cc3)c(-c3ccc(OCCN4CCN(C)CC4)c(Cl)c3C)c12 (stereo partly drawn) [Example 864, 1-[(methoxyacetyl)oxy]ethyl (2R)-2-{[5-{3-chloro-2-methyl-4-[2-(4-methylpiperazin-1-yl)ethoxy]phenyl}-6-(4-fluorophenyl)thieno[2,3-d]pyrimidin-4-yl]oxy}-3-(2-{[2-(2-methoxyphenyl)pyrimidin-4-yl]methoxy}phenyl)propanoate]
IC50 (Mcl-1 protein; [6]): 2.7e-08 M

Compound: (2R)-2-{[(5Sa)-5-(3-chloro-2-methylphenyl)-6-ethylthieno[2,3-d]pyrimidin-4-yl]oxy}-3-phenylpropanoic acid and (2S)-2-{[(5Ra)-5-(3-chloro-2-methylphenyl)-6-ethylthieno[2,3-d]pyrimidin-4-yl]oxy}-3-phenylpropanoic acid [Example 449]
IC50 (Mcl-1 protein; fluorescence polarisation, Method 1, or Method 2): 2.8e-08 M

The next lines start with results.

IC50 (Mcl-1 protein; [2]): 6.2e-09 M
Compound: CCCCCn1nccc1C(C)Oc1ccccc1CC(Oc1ncnc2sc(-c3ccc(F)cc3)c(-c3ccc(OCCN4CCN(C)CC4)c(Cl)c3C)c12)C(=O)O (single isomer, unassigned) [Example 5, (2R)-2-{[(5Sa)-5-{3-chloro-2-methyl-4-[2-(4-methylpiperazin-1-yl)ethoxy]phenyl}-6-(4-fluorophenyl)thieno[2,3-d]pyrimidin-4-yl]oxy}-3-{2-[(1R or S)-1-(1-pentyl-1H-pyrazol-5-yl)ethoxy]phenyl}propanoic acid]
IC50 [1, 3]: 0.418 µM

IC50 (Mcl-1 protein; [2]): 4.2e-08 M
Compound: Cc1c(-c2c(-c3ccc(F)cc3)sc3ncnc(OC(Cc4ccccc4OCc4cnccn4)C(=O)O)c23)ccc(OC2CCCN(C)C2)c1Cl (single isomer, unassigned) [Example 142, (2R)-2-{[(5Sa)-5-{3-chloro-2-methyl-4-[((3R or S)-1-methylpiperidin-3-yl)oxy]phenyl}-6-(4-fluorophenyl)thieno[2,3-d]pyrimidin-4-yl]oxy}-3-[2-(pyrazin-2-ylmethoxy)phenyl]propanoic acid]
IC50 [1, 4]: 1.67 µM

IC50 (Mcl-1 protein; [6]): 9.79e-07 M
Compound: CCOC(=O)C(Cc1ccccc1OCc1ccnc(-c2ccccc2CO)n1)Oc1ncnc2sc(-c3ccc(F)cc3)c(-c3ccc(OCCN4CCN(C)CC4)c(Cl)c3C)c12 [Example 856, ethyl (2R)-2-{[(5Sa)-5-{3-chloro-2-methyl-4-[2-(4-methylpiperazin-1-yl)ethoxy]phenyl}-6-(4-fluorophenyl)thieno[2,3-d]pyrimidin-4-yl]oxy}-3-[2-({2-[2-(hydroxymethyl)phenyl]pyrimidin-4-yl}methoxy)phenyl]propanoate]

percentage fluorescence polarisation inhibition (Mcl-1 FP), partial inhibitors (Mcl-1 protein; [5]): 77.85% @ 10 uM
Compound: CCOC(=O)[C@@H](Cc1ccccc1OCc1ccnc(-c2ccccc2CO)n1)Oc1ncnc2sc(-c3ccc(F)cc3)c(-c3ccc(OCCN(C)C)c(Cl)c3C)c12 [Example 857, ethyl (2R)-2-{[(5Sa)-5-{3-chloro-4-[2-(dimethylamino)ethoxy]-2-methylphenyl}-6-(4-fluorophenyl)thieno[2,3-d]pyrimidin-4-yl]oxy}-3-[2-({2-[2-(hydroxymethyl)phenyl]pyrimidin-4-yl}methoxy)phenyl]propanoate]

IC50 (Mcl-1 protein; [6]): 1.13e-06 M
Compound: COc1ccccc1-c1nccc(COc2ccccc2CC(Oc2ncnc3sc(-c4ccc(F)cc4)c(-c4ccc(OCCN5CCN(C)CC5)c(Cl)c4C)c23)C(=O)OC(C)OC(=O)C(C)(C)C)n1 [Example 859, 1-{[(2R)-2-{[(5Sa)-5-{3-chloro-2-methyl-4-[2-(4-methylpiperazin-1-yl)ethoxy]phenyl}-6-(4-fluorophenyl)thieno[2,3-d]pyrimidin-4-yl]oxy}-3-(2-{[2-(2-methoxyphenyl)pyrimidin-4-yl]methoxy}phenyl)propanoyl]oxy}ethyl 2,2-dimethylpropanoate]

IC50 (Mcl-1 protein; [6]): 5.77e-07 M
Compound: COc1ccccc1-c1nccc(COc2ccccc2CC(Oc2ncnc3sc(-c4ccc(F)cc4)c(-c4ccc(OCCN5CCN(C)CC5)c(Cl)c4C)c23)C(=O)OC(C)OC(=O)C(C)C)n1 [Example 861, 1-[(2-methylpropanoyl)oxy]ethyl (2R)-2-{[(5Sa)-5-{3-chloro-2-methyl-4-[2-(4-methylpiperazin-1-yl)ethoxy]phenyl}-6-(4-fluorophenyl)thieno[2,3-d]pyrimidin-4-yl]oxy}-3-(2-{[2-(2-methoxyphenyl)pyrimidin-4-yl]methoxy}phenyl)propanoate]

From US9670227B2, “Thienopyrimidine derivatives, a process for their preparation and pharmaceutical compositions containing them” (LES LABORATOIRES SERVIER, priority 2013, dated 2017)
